What follows are compounds tested against T1, human OX2 receptor (Homo sapiens, UniProt O43614) (assay: Measurement of orexin type 2 receptor agonist activity (calcium fluorescence, Fluo-4 AM, FDSS)). Conditions: compound at 3 μM; CHO cells forcibly expressing human OX2 receptor; DMSO = 0%, 10 nM orexin A (human) = 100%.
T1 construct: expressed in transfected cells
T1 sequence (O43614 1-444): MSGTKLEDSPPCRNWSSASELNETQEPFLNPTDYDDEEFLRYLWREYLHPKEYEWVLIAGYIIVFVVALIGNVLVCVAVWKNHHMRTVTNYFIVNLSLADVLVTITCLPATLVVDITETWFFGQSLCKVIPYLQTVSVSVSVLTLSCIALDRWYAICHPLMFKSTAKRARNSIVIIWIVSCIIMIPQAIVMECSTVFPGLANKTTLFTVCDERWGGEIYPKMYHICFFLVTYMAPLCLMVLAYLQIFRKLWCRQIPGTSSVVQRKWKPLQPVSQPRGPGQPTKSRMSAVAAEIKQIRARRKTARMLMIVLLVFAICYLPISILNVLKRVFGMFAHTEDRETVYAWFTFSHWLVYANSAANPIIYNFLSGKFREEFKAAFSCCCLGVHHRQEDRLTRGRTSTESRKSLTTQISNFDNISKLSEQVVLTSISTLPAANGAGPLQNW
Type: cell-based
In short: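 Agonist response is expressed as % of the fluorescence change given by 10 nM human orexin A, with DMSO as 0%, read over 1 min 40 s on FDSS after compound addition. Cells: stable human OX2 (1-444) CHO-K1 clones, dye-loaded with Fluo-4 AM plus probenecid in HEPES-buffered HBSS with 0.1% BSA.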
With CS(=O)(=O)N[C@@H]1CN(C2=NOC(c3ncc(F)cc3-c3c(F)cccc3F)C2)CC1(F)F (stereo partly drawn) [Example 69, N-[(3R)-1-{5-[3-(2,6-difluorophenyl)-5-fluoropyridin-2-yl]-4,5-dihydro-1,2-oxazol-3-yl}-4,4-difluoropyrrolidin-3-yl]methanesulfonamide] the “OX2R agonist activity (3 μM, %)” value was 95%. Cc1cnc([C@@H]2CC(N3C[C@@H](NS(C)(=O)=O)[C@@](C)(F)C3)=NO2)c(-c2c(F)cccc2F)c1 (mixture of isomers) [Example 51, mixture of N-[(3R,4S)-1-{(5S)-5-[3-(2,6-difluorophenyl)-5-methylpyridin-2-yl]-4,5-dihydro-1,2-oxazol-3-yl}-4-fluoro-4-methylpyrrolidin-3-yl]methanesulfonamide and N-[(3S,4R)-1-{(5S)-5-[3-(2,6-difluorophenyl)-5-methylpyridin-2-yl]-4,5-dihydro-1,2-oxazol-3-yl}-4-fluoro-4-methylpyrrolidin-3-yl]methanesulfonamide] was tested, and the “OX2R agonist activity (3 μM, %)” value was 99%. In the case of CS(=O)(=O)N[C@@H]1CN(C2=NOC(c3c(F)cc(F)c(F)c3-c3c(F)cccc3F)C2)CC1(F)F (stereo partly drawn) [Example 172, N-{(3R)-4,4-difluoro-1-[5-(2′,3,5,6,6′-pentafluoro[1,1′-biphenyl]-2-yl)-4,5-dihydro-1,2-oxazol-3-yl]pyrrolidin-3-yl}methanesulfonamide], the “OX2R agonist activity (3 μM, %)” value was 99%. With Cc1cc(F)c(C2CC(N3C[C@@H](NS(C)(=O)=O)C(F)(F)C3)=NO2)c(-c2c(F)cccc2F)c1 (stereo partly drawn) [Example 146, N-{(3R)-4,4-difluoro-1-[5-(2′,3,6′-trifluoro-5-methyl[1,1′-biphenyl]-2-yl)-4,5-dihydro-1,2-oxazol-3-yl]pyrrolidin-3-yl}methanesulfonamide] the “OX2R agonist activity (3 μM, %)” value was 102%. Cc1cnc([C@@H]2CC(N3C[C@H](F)[C@H](NS(C)(=O)=O)C3)=NO2)c(-c2c(F)cccc2F)c1 [Example 32, N-[(3R,4S)-1-{(5S)-5-[3-(2,6-difluorophenyl)-5-methylpyridin-2-yl]-4,5-dihydro-1,2-oxazol-3-yl}-4-fluoropyrrolidin-3-yl]methanesulfonamide] was tested, and the “OX2R agonist activity (3 μM, %)” value was 98%. For CCS(=O)(=O)N[C@@H]1CN(C2=NOC(c3ncc(F)cc3-c3c(F)cc(F)cc3F)C2)CC1(F)F (stereo partly drawn) [Example 34, N-[(3R)-4,4-difluoro-1-{5-[5-fluoro-3-(2,4,6-trifluorophenyl)pyridin-2-yl]-4,5-dihydro-1,2-oxazol-3-yl}pyrrolidin-3-yl]ethanesulfonamide], the “OX2R agonist activity (3 μM, %)” value was 105%. In the case of CC1(c2ncc(F)cc2-c2c(F)cccc2F)CC(N2C[C@@H](NS(C)(=O)=O)C(F)(F)C2)=NO1 (stereo partly drawn) [Example 158, N-[(3R)-1-{5-[3-(2,6-difluorophenyl)-5-fluoropyridin-2-yl]-5-methyl-4,5-dihydro-1,2-oxazol-3-yl}-4,4-difluoropyrrolidin-3-yl]methanesulfonamide], the “OX2R agonist activity (3 μM, %)” value was 100%. For CS(=O)(=O)N[C@@H]1CN(C2=NOC(c3ncc(F)cc3-c3c(F)cc(F)cc3F)C2)C[C@@H]1F (stereo partly drawn) [Example 90, N-[(3R,4S)-4-fluoro-1-{5-[5-fluoro-3-(2,4,6-trifluorophenyl)pyridin-2-yl]-4,5-dihydro-1,2-oxazol-3-yl}pyrrolidin-3-yl]methanesulfonamide], the “OX2R agonist activity (3 μM, %)” value was 98%. For CCS(=O)(=O)N[C@@H]1CN(C2=NOC(CF)(c3ncc(Cl)cc3-c3c(F)cccc3F)C2)C[C@@H]1F (stereo partly drawn) [Example 115, N-[(3R,4S)-1-{5-[5-chloro-3-(2,6-difluorophenyl)pyridin-2-yl]-5-(fluoromethyl)-4,5-dihydro-1,2-oxazol-3-yl}-4-fluoropyrrolidin-3-yl]ethanesulfonamide], the “OX2R agonist activity (3 μM, %)” value was 100%. In the case of Cc1cnc([C@@H]2CC(N3C[C@H](F)[C@H](NS(=O)(=O)CF)C3)=NO2)c(-c2c(F)cc(F)cc2F)c1 [Example 82, 1-fluoro-N-[(3R,4S)-4-fluoro-1-{(5S)-5-[5-methyl-3-(2,4,6-trifluorophenyl)pyridin-2-yl]-4,5-dihydro-1,2-oxazol-3-yl}pyrrolidin-3-yl]methanesulfonamide], the “OX2R agonist activity (3 μM, %)” value was 98%. For O=S(=O)(CF)N[C@H]1CCN(C2=NOC(c3ncc(F)cc3-c3c(F)cc(F)cc3F)C2)C1 (stereo partly drawn) [Example 36, 1-fluoro-N-[(3S)-1-{5-[5-fluoro-3-(2,4,6-trifluorophenyl)pyridin-2-yl]-4,5-dihydro-1,2-oxazol-3-yl}pyrrolidin-3-yl]methanesulfonamide], the “OX2R agonist activity (3 μM, %)” value was 103%. For CS(=O)(=O)N[C@@H]1CN(C2=NOC(c3c(F)cc(F)cc3-c3ncc(F)cc3F)C2)CC1(F)F (stereo partly drawn) [Example 138, N-[(3R)-1-{5-[2-(3,5-difluoropyridin-2-yl)-4,6-difluorophenyl]-4,5-dihydro-1,2-oxazol-3-yl}-4,4-difluoropyrrolidin-3-yl]methanesulfonamide], the “OX2R agonist activity (3 μM, %)” value was 105%. For COCC1(c2ncc(F)cc2-c2c(F)cccc2F)CC(N2C[C@@H](NS(C)(=O)=O)C(F)(F)C2)=NO1 (stereo partly drawn) [Example 131, N-[(3R)-1-{5-[3-(2,6-difluorophenyl)-5-fluoropyridin-2-yl]-5-(methoxymethyl)-4,5-dihydro-1,2-oxazol-3-yl}-4,4-difluoropyrrolidin-3-yl]methanesulfonamide], the “OX2R agonist activity (3 μM, %)” value was 112%. With Cc1cnc([C@@H]2CC(N3C[C@@H](F)[C@H](NS(=O)(=O)N(C)C)C3)=NO2)c(-c2c(F)cccc2F)c1 [Example 78, N′-[(3R,4R)-1-{(5S)-5-[3-(2,6-difluorophenyl)-5-methylpyridin-2-yl]-4,5-dihydro-1,2-oxazol-3-yl}-4-fluoropyrrolidin-3-yl]-N,N-dimethylsulfuric diamide] the “OX2R agonist activity (3 μM, %)” value was 102%. In the case of CCS(=O)(=O)N[C@@H]1CN(C2=NO[C@H](c3ncc(C)cc3-c3c(F)cc(F)cc3F)C2)C[C@@H]1F [Example 92, N-[(3R,4S)-4-fluoro-1-{(5S)-5-[5-methyl-3-(2,4,6-trifluorophenyl)pyridin-2-yl]-4,5-dihydro-1,2-oxazol-3-yl}pyrrolidin-3-yl]ethanesulfonamide], the “OX2R agonist activity (3 μM, %)” value was 92%. With Cc1cc(F)c(C2CC(N3C[C@@H](NS(C)(=O)=O)C(F)(F)C3)=NO2)c(-c2ncc(F)cc2F)c1 (stereo partly drawn) [Example 154, N-[(3R)-1-{5-[2-(3,5-difluoropyridin-2-yl)-6-fluoro-4-methylphenyl]-4,5-dihydro-1,2-oxazol-3-yl}-4,4-difluoropyrrolidin-3-yl]methanesulfonamide] the “OX2R agonist activity (3 μM, %)” value was 102%. With CS(=O)(=O)N[C@@H]1CN(C2=NOC(c3ccc(F)c(F)c3-c3c(F)cccc3F)C2)C[C@@H]1F (stereo partly drawn) [Example 137, N-{(3R,4S)-4-fluoro-1-[5-(2′,5,6,6′-tetrafluoro[1,1′-biphenyl]-2-yl)-4,5-dihydro-1,2-oxazol-3-yl]pyrrolidin-3-yl}methanesulfonamide] the “OX2R agonist activity (3 μM, %)” value was 102%. In the case of CS(=O)(=O)N[C@@H]1CN(C2=NOC(c3c(F)cc(F)cc3-c3c(F)cccc3F)C2)C[C@@H]1F (stereo partly drawn) [Example 144, N-{(3R,4S)-4-fluoro-1-[5-(2′,3,5,6′-tetrafluoro[1,1′-biphenyl]-2-yl)-4,5-dihydro-1,2-oxazol-3-yl]pyrrolidin-3-yl}methanesulfonamide], the “OX2R agonist activity (3 μM, %)” value was 98%. In the case of CS(=O)(=O)N[C@@H]1CN(C2=NOC(c3c(F)cc(F)cc3-c3ncc(F)cc3F)C2)C[C@@H]1F (stereo partly drawn) [Example 139, N-[(3R,4S)-1-{5-[2-(3,5-difluoropyridin-2-yl)-4,6-difluorophenyl]-4,5-dihydro-1,2-oxazol-3-yl}-4-fluoropyrrolidin-3-yl]methanesulfonamide], the “OX2R agonist activity (3 μM, %)” value was 94%. With Cc1ccc([C@@H]2CC(N3CC[C@H](NS(C)(=O)=O)C3)=NO2)c(-c2ncc(F)cc2F)c1 [Example 50, N-[(3S)-1-{5-[2-(3,5-difluoropyridin-2-yl)-4-methylphenyl]-4,5-dihydro-1,2-oxazol-3-yl}pyrrolidin-3-yl]methanesulfonamide] the “OX2R agonist activity (3 μM, %)” value was 99%. CCS(=O)(=O)N[C@@H]1CN(C2=NOC(c3ncc(Cl)cc3-c3c(F)cccc3F)C2)CC1(F)F (stereo partly drawn) [Example 143, N-[(3R)-1-{5-[5-chloro-3-(2,6-difluorophenyl)pyridin-2-yl]-4,5-dihydro-1,2-oxazol-3-yl}-4,4-difluoropyrrolidin-3-yl]ethanesulfonamide] was tested, and the “OX2R agonist activity (3 μM, %)” value was 109%. For CS(=O)(=O)N[C@H]1CCN(C2=NOC(CF)(c3ncc(F)cc3-c3c(F)cccc3F)C2)C1 (stereo partly drawn) [Example 87, N-[(3S)-1-{5-[3-(2,6-difluorophenyl)-5-fluoropyridin-2-yl]-5-(fluoromethyl)-4,5-dihydro-1,2-oxazol-3-yl}pyrrolidin-3-yl]methanesulfonamide], the “OX2R agonist activity (3 μM, %)” value was 104%. For CS(=O)(=O)N[C@@H]1CN(C2=NOC(c3ccccc3-c3c(F)cccc3F)C2)CC1(F)F (stereo partly drawn) [Example 4, N-{(3R)-1-[5-(2′,6′-difluoro[1,1′-biphenyl]-2-yl)-4,5-dihydro-1,2-oxazol-3-yl]-4,4-difluoropyrrolidin-3-yl}methanesulfonamide], the “OX2R agonist activity (3 μM, %)” value was 104%.

Source: US20240217957A1, “HETEROCYCLIC COMPOUND AND USE THEREOF” (TAKEDA PHARMACEUTICAL COMPANY LIMITED, priority 2022, published 2024)
